# Data taken from patent US20260250320A1, “LIPIDATED PEPTIDE INHIBITORS OF INTERLEUKIN-23 RECEPTOR” (Janssen Pharmaceutica NV, priority 2023, published 2026).
# *1 amine or outer side, *2 acyl side, *3 side chain or, on linkers, in order; H or OH if unused. Where a SMILES comes first, the peptide text is derived from it. Bridges are numbered along the chain shown (N, C = ends). Side-chain parts run from the residue outwards. [ ]: non-standard residue; d: D form. The star is where a group is joined. X22 = O=C(O)CCCCCCCCCCCCCCCCC(=O)N[C@@H](CCC(=O)NCCOCCOCC(=O)NCCCCCOCC(=O)*)C(=O)O; X11 = CN(CC(N)=O)C(=O)[C@H](Cc1cccnc1)NC(O)[C@H](CC(N)=O)N*; Me3N+(CH2)2O(CH2)2O(CH2)2CO = C[N+](C)(C)CCOCCOCCC(=O)*; dTrp(7-Me) = Cc1cccc2c(C[C@@H](N)C(=O)O)c[nH]c12; Biotin = O=C1N[C@H]2[C@H](CS[C@H]2CCCCC(=O)*)N1; Trp(7-Me) = Cc1cccc2c(C[C@H](N)C(=O)O)c[nH]c12; C18 diacid = O=C(O)CCCCCCCCCCCCCCCCC(=O)*; γGlu = O=C(O)[C@H](CCC(=O)[*:2])N[*:1]; 2Nal = N[C@@H](Cc1ccc2ccccc2c1)C(=O)O; AEF = NCCOc1ccc(C[C@H](N)C(=O)O)cc1; X2 = C[N+](C)(C)C[C@@H](CC(=O)O)N*; 3Pal = N[C@@H](Cc1cccnc1)C(=O)O; Lys(Me) = CNCCCC[C@H](N)C(=O)O; PEG4 = NCCOCCOCCOCCOCCC(=O)O; Pen = CC(C)(S)[C@H](N)C(=O)O; Suc = O=C(CCC(=O)[*:2])[*:1]; Thp = NC1(C(=O)O)CCOCC1; AEEA = NCCOCCOCC(=O)O; Sar = CNCC(=O)O
# Assays:
# [1] = tested on: IL-23-stimulated phosphorylated STAT3 in peripheral blood mononuclear cells (PBMCs); experiment: PBMC pSTAT3 Assay; format: cell-based; conditions: PBMCs from healthy donors; 30 min preincubation with peptide; IL-23 5 ng/mL for 30 min; phospho-STAT3 by MSD
# Procedure, shortened: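 Phospho-STAT3 quantified by Meso Scale assay in lysates of PBMCs exposed to IL-23 (5 ng/mL, 30 min, 37 °C) after 30 min peptide pretreatment. Cells were cryopreserved donor PBMCs activated 4 days with anti-CD3 plus IL-1β (100 ng/mL) and starved ~4 h; IC50 reported.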
# [2] = molecular target: T1, IL-23R (Homo sapiens, UniProt Q5VWK5); experiment: IL23R Reporter Assay; format: cell-based; conditions: HEK293 cells containing IL-23R, IL-12Rβ1 and STAT-inducible firefly luciferase reporter; 10 ng/mL IL-23 (EC90); 5 h
# T1 construct: HEK293 cells containing IL-23R, IL-12Rβ1 and a firefly luciferase reporter gene driven by a STAT-inducible promoter (Promega); host or cells: HEK293
# T1 sequence (Q5VWK5 24-629): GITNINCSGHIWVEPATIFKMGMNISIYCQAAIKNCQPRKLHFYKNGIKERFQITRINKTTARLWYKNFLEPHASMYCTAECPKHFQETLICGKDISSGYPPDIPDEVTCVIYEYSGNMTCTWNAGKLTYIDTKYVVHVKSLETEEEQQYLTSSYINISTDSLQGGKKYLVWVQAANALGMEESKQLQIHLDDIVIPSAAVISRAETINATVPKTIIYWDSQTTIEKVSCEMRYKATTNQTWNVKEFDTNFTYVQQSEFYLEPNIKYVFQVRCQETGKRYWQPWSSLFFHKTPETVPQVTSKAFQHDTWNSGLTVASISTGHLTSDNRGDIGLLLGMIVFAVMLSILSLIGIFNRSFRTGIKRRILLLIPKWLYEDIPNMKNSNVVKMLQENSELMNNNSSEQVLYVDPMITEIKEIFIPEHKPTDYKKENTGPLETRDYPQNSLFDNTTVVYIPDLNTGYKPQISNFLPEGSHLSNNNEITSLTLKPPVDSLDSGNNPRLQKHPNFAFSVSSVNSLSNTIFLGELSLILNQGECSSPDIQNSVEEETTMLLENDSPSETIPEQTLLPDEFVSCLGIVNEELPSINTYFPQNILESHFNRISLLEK
# Procedure, shortened: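 IC50 values were fitted with a 4-parameter Hill equation to luciferase signal, scaled between IL-23-only wells (0% inhibition) and 30 μM reference inhibitor (100%). The readout was a STAT-inducible reporter in IL-23R/IL-12Rβ1 HEK293 cells, stimulated with added 10 ng/mL IL-23 (EC90) for 5 h at 37° C and developed with BioGlo.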
compound,measurement,setting,value
"CC(=O)NCCCC[C@@H]1NC(=O)[C@H](Cc2c[nH]c3c(C)cccc23)NC(=O)[C@H]([C@@H](C)O)NC(=O)[C@H](CC(N)=O)NC(=O)[C@@H](NC(=O)[C@@H](CCCNC(=N)N)NC(=O)COCCOCCNC(=O)COCCOCCNC(=O)CC[C@H](NC(=O)CCCCCCCCCCCCCCCCC(=O)O)C(=O)O)C(C)(C)SSC(C)(C)[C@@H](C(=O)N[C@@H](Cc2ccc(OCCN)cc2)C(=O)N[C@@H](Cc2ccc3ccccc3c2)C(=O)NC2(C(=O)N[C@@H](CCCCN(C)C(=O)CCOCCOCC[N+](C)(C)C)C(=O)N[C@@H](CC(N)=O)C(O)N[C@@H](Cc3cccnc3)C(=O)N(C)CC(N)=O)CCOCC2)NC1=O (stereo partly drawn) [compound 82, HOC18gEPEG2PEG2CO-r-Pen(3)-N-T-7MeW-K(Ac)-Pen(3)-AEF-2Nal-THP-K(NMecPEG3a)-N-3Pya-Sar-CONH2] ({C18 diacid-γGlu-AEEA-AEEA}-[dR][Pen]NT[Trp(7-Me)]K(Ac)[Pen][AEF][2Nal][Thp][Lys(Me)](Me3N+(CH2)2O(CH2)2O(CH2)2CO)-X11; disulfide 2-7)",IC50,[1],< 0.5 nM
same,IC50,[2],< 50 nM
"CC(=O)N[C@H](CCCNC(=N)N)C(=O)N[C@@H]1C(=O)N[C@@H](CC(N)=O)C(=O)N[C@@H]([C@@H](C)O)C(=O)N[C@@H](Cc2c[nH]c3c(C)cccc23)C(=O)N[C@@H](CCCCNC(=O)CCC(=O)N[C@H](CC(=O)O)C[N+](C)(C)C)C(=O)N[C@H](C(=O)N[C@@H](Cc2ccc(OCCN)cc2)C(=O)N[C@@H](Cc2ccc3ccccc3c2)C(=O)NC2(C(=O)N[C@@H](CCC(=O)O)C(=O)N[C@@H](CC(N)=O)C(=O)N[C@@H](Cc3cccnc3)C(=O)N(C)CC(=O)N[C@@H](CCCCNC(=O)COCCOCCNC(=O)COCCOCCNC(=O)CC[C@H](NC(=O)CCCCCCCCCCCCCCCCC(=O)O)C(=O)O)C(N)=O)CCOCC2)C(C)(C)SSC1(C)C [compound 52, MeCO-r-Pen(3)-N-T-7MeW-K(d)-Pen(3)-AEF-2Nal-THP-E-N-3Pya-Sar-K(PEG2PEG2gEC18OH)-CONH2] (Ac-[dR][Pen]NT[Trp(7-Me)]K([Suc-X2])[Pen][AEF][2Nal][Thp]EN[3Pal][Sar]K([AEEA-AEEA-γGlu-C18 diacid])-NH2; disulfide 2-7)",IC50,[1],< 0.5 nM
same,IC50,[2],50 to 500 nM
"CC(=O)NCCCC[C@@H]1NC(=O)[C@@H](Cc2c[nH]c3c(C)cccc23)NC(=O)[C@H]([C@@H](C)O)NC(=O)[C@H](CC(N)=O)NC(=O)[C@@H](NC(=O)[C@@H](CCCNC(=N)N)NC(=O)CCOCCOCCOCCOCCNC(=O)CCCC[C@@H]2SC[C@@H]3NC(=O)N[C@@H]32)C(C)(C)SSC(C)(C)[C@@H](C(=O)N[C@@H](Cc2ccc(OCCN)cc2)C(=O)N[C@@H](Cc2ccc3ccccc3c2)C(=O)NC2(C(=O)N[C@@H](CCC(=O)O)C(=O)N[C@@H](CC(N)=O)C(=O)N[C@@H](Cc3cccnc3)C(=O)N(C)CC(=O)N[C@@H](CCCCNC(=O)COCCCCCNC(=O)COCCOCCNC(=O)CC[C@H](NC(=O)CCCCCCCCCCCCCCCCC(=O)O)C(=O)O)C(N)=O)CCOCC2)NC1=O [compound 57, BiotinPEG4CO-r-Pen(3)-N-T-7MeW-K(Ac)-Pen(3)-AEF-2Nal-THP-E-N-3Pya-Sar-K(PEG2PEG2gEC18OH)-CONH2] ({Biotin-PEG4}-[dR][Pen]NT[dTrp(7-Me)]K(Ac)[Pen][AEF][2Nal][Thp]EN[3Pal][Sar]K(X22)-NH2; disulfide 2-7)",IC50,[1],< 0.5 nM
same,IC50,[2],< 50 nM
"CC(=O)N(C)CCCC[C@H](CC(=O)C1(NC(=O)[C@H](Cc2ccc3ccccc3c2)NC(=O)[C@H](Cc2ccc(OCCNC(=O)C[N+](C)(C)CCNC(=O)COCCOCCNC(=O)COCCOCCNC(=O)CC[C@H](NC(=O)CCCCCCCCCCCCCCCCC(=O)O)C(=O)O)cc2)NC(=O)[C@@H]2CCCCC(C)[C@H](NC(=O)CCOCCOCC[N+](C)(C)C)C(=O)N[C@@H](CC(=O)N(C)C)N[C@@H]([C@@H](C)O)C(=O)N[C@@H](Cc3c[nH]c4c(C)cccc34)C(=O)N[C@@H](CCCCN(C)C(C)=O)C(=O)N2)CCOCC1)C(=O)C[C@@H](CC(N)=O)C(=O)N[C@@H](Cc1cccnc1)C(=O)N(C)CC(=O)N(C)C (stereo partly drawn) [compound 154, cPEG3aCO-Pen(3)-N(N(Me)2)-T-7MeW-K(NMeAc)-Pen(3)-AEF(SP6PEG2PEG2gEC18OH)-2Nal-THP-K(NMeAc)-N-3Pya-Sar-CON(Me)2]",IC50,[1],< 0.5 nM
same,IC50,[2],< 50 nM
